Measured values reported in US5068247A, “2-aminopentanoic acid compounds and their use as immunosuppressants” (priority 1989, dated 1991).

Experiments:
[1] = tested on: anti-sheep red blood cell antibody production; test: suppression of mouse anti-sheep red blood cell antibody production; format: in vivo; conditions: for Body weight at 4 days later / Body weight on immunized day / Number of PFC per 1 × 10^7 cell / Number of PFC per spleen / Number of spleen cells / Suppression of number of PFC per 1 × 10^7 cell / Suppression of number of PFC per spleen / Wet weight of spleen / Wet weight of thymus: 4 days
Description: Male 5- to 7-week-old BALB/c mice were immunized with sheep red blood cells (5×10^7 cells/mouse, intravenous administration), and the test substance was administered intraperitoneally at the dose of 3 to 10 mg/kg/day for 4 consecutive days from the day of immunization. Four days after immunization, the spleen was resected, and suppression of anti-sheep red blood cell antibody production was examined by counting the number of plaque-forming cells (PFC) by direct plaque method using sheep red blood cells and guinea pig complement. At the same time, the body weight of the mouse, wet weight of the thymus and the spleen, and the number of spleen cells were also determined.

[2] = tested on: IL-1 response of mouse thymocytes; test: suppression of the IL-1 response of mouse thymocytes; format: cell-based; conditions: IL-1 50 U/ml
Description: The thymus was resected from 6-week-old male C3H/HeN mice, and a single cell suspension was prepared using the serum-free RPMI1640 culture medium. After washing three times, the cell suspension was adjusted to a concentration of 1.5×10^7 cells/ml in the RPMI1640 culture medium supplemented with 10^-4 M 2-mercaptoethanol and 20% FCS. […] After termination of culture, 18.5 KBq/well of ^3 H-thymidine was added thereto. After culturing the suspension for further 18 hours, the cells were harvested by a cell harvester, and the radioactivity incorporated into the cells was measured by a liquid scintillation counter, which was used as an index of IL-1, IL-2 or IL-4 response. The suppression of IL-1, IL-2 or IL-4 response was evaluated by calculating the percent suppression by the following formula. [formula]

[3] = tested on: IL-2 response of mouse thymocytes; test: suppression of the IL-2 response of mouse thymocytes; format: cell-based; conditions: for inhibition at 0.0001 µg/mL / inhibition at 0.001 µg/mL / inhibition at 0.01 µg/mL / inhibition at 0.1 µg/mL / inhibition at 1 µg/mL: Mus musculus, Thymocyte, 72 h
Description: (§1) The thymus was resected from 6-week-old male C3H/HeN mice, and a single cell suspension was prepared using the serum-free RPMI1640 culture medium. After washing three times, the cell suspension was adjusted to a concentration of 1.5×10^7 cells/ml in the RPMI1640 culture medium supplemented with 10^-4 M 2-mercaptoethanol and 20% FCS. […] After culturing the suspension for further 18 hours, the cells were harvested by a cell harvester, and the radioactivity incorporated into the cells was measured by a liquid scintillation counter, which was used as an index of IL-1, IL-2 or IL-4 response. The suppression of IL-1, IL-2 or IL-4 response was evaluated by calculating the percent suppression by the following formula. [formula]

[4] = tested on: IL-4 response of mouse thymocytes; test: suppression of the IL-4 response of mouse thymocytes; format: cell-based; conditions: for inhibition at 0.0001 µg/mL / inhibition at 0.001 µg/mL / inhibition at 0.01 µg/mL / inhibition at 0.1 µg/mL / inhibition at 1 µg/mL: Mus musculus, Thymocyte, 72 h
Description: as §1

[5] = tested on: mouse acute graft versus host reaction (GVHR); test: suppression of mouse acute graft versus host reaction (GVHR); format: in vivo
Description: C57BL/6 mouse spleen cell suspension (2×10^7 cells/mouse) was injected into the right hind footpad of 5- to 7-week-old BDF1 female mice. Seven days after injection, right popliteal lymph node was resected to measure the weight thereof and compare the weight with that of the left popliteal lymph node of the control mice injected with physiological saline, which was used as an index of acute graft versus host reaction (GVHR). The compound of Example 5 was administered intraperitoneally at the dose of 0.3 mg/kg, orally at the dose of 1 mg/kg and intramuscularly at the doses of 0.3 and 1 mg/kg for 6 days from the day of injection, and at the seventh day, the weight of the right poples lymphonodus was measured.

CCCCCCCCCCCCCCCC[C@@H](O)[C@H](O)[C@@](N)(CO)C(=O)O [Example 2]
Body weight at 4 days later ([1]; 3 mg/kg/day ip): 24 ± 1 g
Body weight on immunized day ([1]; 3 mg/kg/day ip): 22 ± 1 g
Number of PFC per 1 × 10^7 cell ([1]; 3 mg/kg/day ip): 5.5 ± 0.8 × 10^3 /1 × 10^7 cell
Number of PFC per spleen ([1]; 3 mg/kg/day ip): 17.9 ± 3.6 × 10^4 /spleen
Number of spleen cells ([1]; 3 mg/kg/day ip): 3.3 ± 0.5 × 10^8 cell
Suppression of number of PFC per 1 × 10^7 cell ([1]; 3 mg/kg/day ip): 36.8%
Suppression of number of PFC per spleen ([1]; 3 mg/kg/day ip): 23.2%
Wet weight of spleen ([1]; 3 mg/kg/day ip): 58 ± 11 mg
Wet weight of thymus ([1]; 3 mg/kg/day ip): 318 ± 42 mg
Body weight at 4 days later ([1]; 10 mg/kg/day ip): 23 ± 1 g
Body weight on immunized day ([1]; 10 mg/kg/day ip): 22 ± 1 g
Number of PFC per 1 × 10^7 cell ([1]; 10 mg/kg/day ip): 4.0 ± 2.0 × 10^3 /1 × 10^7 cell
Number of PFC per spleen ([1]; 10 mg/kg/day ip): 10.2 ± 5.5 × 10^4 /spleen
Number of spleen cells ([1]; 10 mg/kg/day ip): 2.5 ± 0.2 × 10^8 cell
Suppression of number of PFC per 1 × 10^7 cell ([1]; 10 mg/kg/day ip): 54.9%
Suppression of number of PFC per spleen ([1]; 10 mg/kg/day ip): 56.2%
Wet weight of spleen ([1]; 10 mg/kg/day ip): 58 ± 10 mg
Wet weight of thymus ([1]; 10 mg/kg/day ip): 233 ± 25 mg
effect on anti-sheep red blood cell antibody production (in words) ([1]; ip): exhibits suppressive effect on anti-sheep red blood cell antibody production

CCCCCCCCCCCCC/C=C/C[C@@H](O)[C@H](O)[C@@](N)(CO)C(=O)O [Example 5]
3H-thymidine uptake ([2]; 0.0001 μg/ml): 10320 ± 1490 cpm
3H-thymidine uptake ([2]; 0.001 μg/ml): 7756 ± 686 cpm
3H-thymidine uptake ([2]; 0.01 μg/ml): 1239 ± 548 cpm
3H-thymidine uptake ([2]; 0.1 μg/ml): 595 ± 144 cpm
3H-thymidine uptake ([2]; 1 μg/ml): 419 ± 36 cpm
inhibition at 0.0001 µg/mL ([2]; Mus musculus, Thymocyte, 72 h, 0.0001 μg/ml): 11.3%
inhibition at 0.001 µg/mL ([2]; Mus musculus, Thymocyte, 72 h, 0.001 μg/ml): 33.7%
inhibition at 0.01 µg/mL ([2]; Mus musculus, Thymocyte, 72 h, 0.01 μg/ml): 90.7%
inhibition at 0.1 µg/mL ([2]; Mus musculus, Thymocyte, 72 h, 0.1 μg/ml): 96.3%
inhibition at 1 µg/mL ([2]; Mus musculus, Thymocyte, 72 h, 1 μg/ml): 97.8%
3H-thymidine uptake ([3]; 0.0001 μg/ml, IL-2 10 U/ml): 2810 cpm
3H-thymidine uptake ([3]; 0.0001 μg/ml, IL-2 50 U/ml): 63715 cpm
3H-thymidine uptake ([3]; 0.001 μg/ml, IL-2 10 U/ml): 1660 cpm
3H-thymidine uptake ([3]; 0.001 μg/ml, IL-2 50 U/ml): 57600 cpm
3H-thymidine uptake ([3]; 0.01 μg/ml, IL-2 10 U/ml): 1285 cpm
3H-thymidine uptake ([3]; 0.01 μg/ml, IL-2 50 U/ml): 32955 cpm
3H-thymidine uptake ([3]; 0.1 μg/ml, IL-2 10 U/ml): 1125 cpm
3H-thymidine uptake ([3]; 0.1 μg/ml, IL-2 50 U/ml): 24600 cpm
3H-thymidine uptake ([3]; 1 μg/ml, IL-2 10 U/ml): 1300 cpm
3H-thymidine uptake ([3]; 1 μg/ml, IL-2 50 U/ml): 25525 cpm
inhibition at 0.0001 µg/mL ([3]; 0.0001 μg/ml, IL-2 10 U/ml): 0%
inhibition at 0.0001 µg/mL ([3]; 0.0001 μg/ml, IL-2 50 U/ml): 0%
inhibition at 0.001 µg/mL ([3]; 0.001 μg/ml, IL-2 10 U/ml): 46.7%
inhibition at 0.001 µg/mL ([3]; 0.001 μg/ml, IL-2 50 U/ml): 4.5%
inhibition at 0.01 µg/mL ([3]; 0.01 μg/ml, IL-2 10 U/ml): 62.1%
inhibition at 0.1 µg/mL ([3]; 0.1 μg/ml, IL-2 10 U/ml): 68.6%
inhibition at 0.1 µg/mL ([3]; 0.1 μg/ml, IL-2 50 U/ml): 59.4%
inhibition at 1 µg/mL ([3]; 1 μg/ml, IL-2 10 U/ml): 61.5%
inhibition at 1 µg/mL ([3]; 1 μg/ml, IL-2 50 U/ml): 58%
inhibition at 0.01 µg/mL ([3]; 0.01 μg/ml, IL-2 50 U/ml): 45.5%
3H-thymidine uptake ([4]; 0.0001 μg/ml, IL-4 50 U/ml): 3190 cpm
3H-thymidine uptake ([4]; 0.0001 μg/ml, IL-4 250 U/ml): 45895 cpm
3H-thymidine uptake ([4]; 0.001 μg/ml, IL-4 50 U/ml): 2025 cpm
3H-thymidine uptake ([4]; 0.001 μg/ml, IL-4 250 U/ml): 39150 cpm
3H-thymidine uptake ([4]; 0.01 μg/ml, IL-4 50 U/ml): 1385 cpm
3H-thymidine uptake ([4]; 0.01 μg/ml, IL-4 250 U/ml): 33515 cpm
3H-thymidine uptake ([4]; 0.1 μg/ml, IL-4 50 U/ml): 815 cpm
3H-thymidine uptake ([4]; 0.1 μg/ml, IL-4 250 U/ml): 24655 cpm
3H-thymidine uptake ([4]; 1 μg/ml, IL-4 50 U/ml): 885 cpm
3H-thymidine uptake ([4]; 1 μg/ml, IL-4 250 U/ml): 21250 cpm
inhibition at 0.0001 µg/mL ([4]; 0.0001 μg/ml, IL-4 50 U/ml): 0%
inhibition at 0.0001 µg/mL ([4]; 0.0001 μg/ml, IL-4 250 U/ml): 13.1%
inhibition at 0.001 µg/mL ([4]; 0.001 μg/ml, IL-4 50 U/ml): 8%
inhibition at 0.001 µg/mL ([4]; 0.001 μg/ml, IL-4 250 U/ml): 26%
inhibition at 0.01 µg/mL ([4]; 0.01 μg/ml, IL-4 50 U/ml): 40.6%
inhibition at 0.01 µg/mL ([4]; 0.01 μg/ml, IL-4 250 U/ml): 36.8%
inhibition at 0.1 µg/mL ([4]; 0.1 μg/ml, IL-4 50 U/ml): 69.7%
inhibition at 1 µg/mL ([4]; 1 μg/ml, IL-4 50 U/ml): 66.2%
inhibition at 1 µg/mL ([4]; 1 μg/ml, IL-4 250 U/ml): 60.2%
inhibition at 0.1 µg/mL ([4]; 0.1 μg/ml, IL-4 250 U/ml): 46.3%
Body weight 7 days after injection ([5]; 0.3 mg/kg/day im × 6): 20.0 ± 0.7 g
Popliteal lymph node weight ([5]; 0.3 mg/kg/day im × 6): 2.88 ± 0.58 mg
Suppression ([5]; 0.3 mg/kg/day im × 6): 60.0%
Body weight 7 days after injection ([5]; 0.3 mg/kg/day ip × 6): 19.0 ± 2.2 g
Popliteal lymph node weight ([5]; 0.3 mg/kg/day ip × 6): 4.46 ± 1.72 mg
Suppression ([5]; 0.3 mg/kg/day ip × 6): 38.1%
Body weight 7 days after injection ([5]; 1 mg/kg/day im × 6): 18.8 ± 1.3 g
Popliteal lymph node weight ([5]; 1 mg/kg/day im × 6): 2.28 ± 0.48 mg
Suppression ([5]; 1 mg/kg/day im × 6): 68.3%
Body weight 7 days after injection ([5]; 1 mg/kg/day po × 6): 20.4 ± 0.6 g
Popliteal lymph node weight ([5]; 1 mg/kg/day po × 6): 3.30 ± 0.64 mg
Suppression ([5]; 1 mg/kg/day po × 6): 54.2%
mouse acute graft versus host reaction (in words) ([5]; intraperitoneal, oral or intramuscular): strongly suppresses the mouse acute graft versus host reaction (GVHR)
